# Reference: PubChem BioAssay (NCI)
#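 Five concentrations, 48 hours, 96-well plates. Abbreviation: GI50, concentration required for 50% inhibition of growth. Definition used: TGI = concentration required for complete inhibition of growth.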
# Assays:
# Experiment in all cases: NCI-60 cell line screen, 48 h
# 786-0 renal = test system: 786-0 renal
# A498 renal = test system: A498 renal
# A549 NSCLC = test system: A549 NSCLC
# ACHN renal = test system: ACHN renal
# BT-549 breast = test system: BT-549 breast
# CAKI-1 renal = test system: CAKI-1 renal
# CCRF-CEM leukemia = test system: CCRF-CEM leukemia
# COLO 205 colon = test system: COLO 205 colon
# DU-145 prostate = test system: DU-145 prostate
# EKVX NSCLC = test system: EKVX NSCLC
# HCC-2998 colon = test system: HCC-2998 colon
# HCT-116 colon = test system: HCT-116 colon
# HCT-15 colon = test system: HCT-15 colon
# HL-60(TB) leukemia = test system: HL-60(TB) leukemia
# HOP-62 NSCLC = test system: HOP-62 NSCLC
# HOP-92 NSCLC = test system: HOP-92 NSCLC
# HS 578T breast = test system: HS 578T breast
# HT29 colon = test system: HT29 colon
# IGROV1 ovarian = test system: IGROV1 ovarian
# K-562 leukemia = test system: K-562 leukemia
# KM12 colon = test system: KM12 colon
# LOX IMVI melanoma = test system: LOX IMVI melanoma
# M14 melanoma = test system: M14 melanoma
# MALME-3M melanoma = test system: MALME-3M melanoma
# MCF7 breast = test system: MCF7 breast
# MDA-MB-231 breast = test system: MDA-MB-231 breast
# MDA-MB-435 = test system: MDA-MB-435
# MDA-MB-468 breast = test system: MDA-MB-468 breast
# MOLT-4 leukemia = test system: MOLT-4 leukemia
# NCI-H226 lung = test system: NCI-H226 lung
# NCI-H23 lung = test system: NCI-H23 lung
# NCI-H460 lung = test system: NCI-H460 lung
# NCI-H522 lung = test system: NCI-H522 lung
# NCI/ADR-RES ovarian = test system: NCI/ADR-RES ovarian
# OVCAR-3 ovarian = test system: OVCAR-3 ovarian
# OVCAR-4 ovarian = test system: OVCAR-4 ovarian
# OVCAR-5 ovarian = test system: OVCAR-5 ovarian
# OVCAR-8 ovarian = test system: OVCAR-8 ovarian
# PC-3 prostate = test system: PC-3 prostate
# RPMI-8226 leukemia = test system: RPMI-8226 leukemia
# RXF 393 renal = test system: RXF 393 renal
# SF-268 CNS = test system: SF-268 CNS
# SF-295 CNS = test system: SF-295 CNS
# SF-539 CNS = test system: SF-539 CNS
# SK-MEL-2 melanoma = test system: SK-MEL-2 melanoma
# SK-MEL-28 melanoma = test system: SK-MEL-28 melanoma
# SK-MEL-5 melanoma = test system: SK-MEL-5 melanoma
# SK-OV-3 ovarian = test system: SK-OV-3 ovarian
# SN12C renal = test system: SN12C renal
# SNB-19 CNS = test system: SNB-19 CNS
# SNB-75 CNS = test system: SNB-75 CNS
# SR leukemia = test system: SR leukemia
# SW-620 colon = test system: SW-620 colon
# T-47D breast = test system: T-47D breast
# TK-10 renal = test system: TK-10 renal
# U251 CNS = test system: U251 CNS
# UACC-257 melanoma = test system: UACC-257 melanoma
# UACC-62 melanoma = test system: UACC-62 melanoma
# UO-31 renal = test system: UO-31 renal
smiles,measurement,setting,value
CN1CCN(Cc2ccc(NC(=O)c3cncc(C#Cc4cnc5ccc(N[C@H]6CCOC6)nn45)c3)cc2C(F)(F)F)CC1,GI50,786-0 renal,268 nM
same,TGI,786-0 renal,959 nM
same,GI50,A498 renal,278 nM
same,TGI,A498 renal,490 nM
same,GI50,A549 NSCLC,175 nM
same,TGI,A549 NSCLC,643 nM
same,GI50,ACHN renal,278 nM
same,TGI,ACHN renal,980 nM
same,GI50,BT-549 breast,291 nM
same,TGI,BT-549 breast,915 nM
same,GI50,CAKI-1 renal,148 nM
same,TGI,CAKI-1 renal,511 nM
same,GI50,CCRF-CEM leukemia,28.3 nM
same,TGI,CCRF-CEM leukemia,687 nM
same,GI50,COLO 205 colon,88 nM
same,TGI,COLO 205 colon,197 nM
same,GI50,DU-145 prostate,170 nM
same,TGI,DU-145 prostate,716 nM
same,GI50,EKVX NSCLC,128 nM
same,TGI,EKVX NSCLC,696 nM
same,GI50,HCC-2998 colon,181 nM
same,TGI,HCC-2998 colon,866 nM
same,GI50,HCT-116 colon,37 nM
same,TGI,HCT-116 colon,290 nM
same,GI50,HCT-15 colon,321 nM
same,TGI,HCT-15 colon,1290 nM
same,GI50,HL-60(TB) leukemia,43.7 nM
same,TGI,HL-60(TB) leukemia,704 nM
same,GI50,HOP-62 NSCLC,172 nM
same,TGI,HOP-62 NSCLC,677 nM
same,GI50,HOP-92 NSCLC,13.7 nM
same,TGI,HOP-92 NSCLC,82.2 nM
same,GI50,HS 578T breast,62.1 nM
same,TGI,HS 578T breast,393 nM
same,GI50,HT29 colon,90.3 nM
same,TGI,HT29 colon,512 nM
same,GI50,IGROV1 ovarian,136 nM
same,TGI,IGROV1 ovarian,394 nM
same,GI50,K-562 leukemia,6.9 nM
same,TGI,K-562 leukemia,930 nM
same,GI50,KM12 colon,6.9 nM
same,TGI,KM12 colon,526 nM
same,GI50,LOX IMVI melanoma,56.6 nM
same,TGI,LOX IMVI melanoma,153 nM
same,GI50,M14 melanoma,103 nM
same,TGI,M14 melanoma,315 nM
same,GI50,MALME-3M melanoma,98.2 nM
same,TGI,MALME-3M melanoma,323 nM
same,GI50,MCF7 breast,46.1 nM
same,TGI,MCF7 breast,274 nM
same,GI50,MDA-MB-231 breast,41.4 nM
same,TGI,MDA-MB-231 breast,231 nM
same,GI50,MDA-MB-435,95.8 nM
same,TGI,MDA-MB-435,813 nM
same,GI50,MDA-MB-468 breast,90.3 nM
same,TGI,MDA-MB-468 breast,211 nM
same,GI50,MOLT-4 leukemia,46.8 nM
same,TGI,MOLT-4 leukemia,866 nM
same,GI50,NCI-H226 lung,14.7 nM
same,TGI,NCI-H226 lung,218 nM
same,GI50,NCI-H23 lung,81.4 nM
same,TGI,NCI-H23 lung,249 nM
same,GI50,NCI-H460 lung,144 nM
same,TGI,NCI-H460 lung,828 nM
same,GI50,NCI-H522 lung,103 nM
same,TGI,NCI-H522 lung,249 nM
same,GI50,NCI/ADR-RES ovarian,5820 nM
same,TGI,NCI/ADR-RES ovarian,25300 nM
same,GI50,OVCAR-3 ovarian,183 nM
same,TGI,OVCAR-3 ovarian,1030 nM
same,GI50,OVCAR-4 ovarian,260 nM
same,TGI,OVCAR-4 ovarian,2130 nM
same,GI50,OVCAR-5 ovarian,142 nM
same,TGI,OVCAR-5 ovarian,536 nM
same,GI50,OVCAR-8 ovarian,252 nM
same,TGI,OVCAR-8 ovarian,1130 nM
same,GI50,PC-3 prostate,185 nM
same,TGI,PC-3 prostate,3690 nM
same,GI50,RPMI-8226 leukemia,237 nM
same,TGI,RPMI-8226 leukemia,1230 nM
same,GI50,RXF 393 renal,108 nM
same,TGI,RXF 393 renal,274 nM
same,GI50,SF-268 CNS,180 nM
same,TGI,SF-268 CNS,917 nM
same,GI50,SF-295 CNS,291 nM
same,TGI,SF-295 CNS,1260 nM
same,GI50,SF-539 CNS,21 nM
same,TGI,SF-539 CNS,102 nM
same,GI50,SK-MEL-2 melanoma,152 nM
same,TGI,SK-MEL-2 melanoma,350 nM
same,GI50,SK-MEL-28 melanoma,235 nM
same,TGI,SK-MEL-28 melanoma,996 nM
same,GI50,SK-MEL-5 melanoma,487 nM
same,TGI,SK-MEL-5 melanoma,1390 nM
same,GI50,SK-OV-3 ovarian,446 nM
same,TGI,SK-OV-3 ovarian,2010 nM
same,GI50,SN12C renal,33.7 nM
same,TGI,SN12C renal,398 nM
same,GI50,SNB-19 CNS,249 nM
same,TGI,SNB-19 CNS,1120 nM
same,GI50,SNB-75 CNS,144 nM
same,TGI,SNB-75 CNS,330 nM
same,GI50,SR leukemia,95 nM
same,TGI,SR leukemia,9330 nM
same,GI50,SW-620 colon,72.3 nM
same,TGI,SW-620 colon,367 nM
same,GI50,T-47D breast,704 nM
same,TGI,T-47D breast,5150 nM
same,GI50,TK-10 renal,254 nM
same,TGI,TK-10 renal,828 nM
same,GI50,U251 CNS,219 nM
same,TGI,U251 CNS,1020 nM
same,GI50,UACC-257 melanoma,483 nM
same,TGI,UACC-257 melanoma,1990 nM
same,GI50,UACC-62 melanoma,151 nM
same,TGI,UACC-62 melanoma,801 nM
same,GI50,UO-31 renal,962 nM
same,TGI,UO-31 renal,2290 nM
